This test has as its target T1, Histone acetyltransferase KAT8 (Homo sapiens, UniProt Q9H7Z6).
T1 sequence (Q9H7Z6 whole entry): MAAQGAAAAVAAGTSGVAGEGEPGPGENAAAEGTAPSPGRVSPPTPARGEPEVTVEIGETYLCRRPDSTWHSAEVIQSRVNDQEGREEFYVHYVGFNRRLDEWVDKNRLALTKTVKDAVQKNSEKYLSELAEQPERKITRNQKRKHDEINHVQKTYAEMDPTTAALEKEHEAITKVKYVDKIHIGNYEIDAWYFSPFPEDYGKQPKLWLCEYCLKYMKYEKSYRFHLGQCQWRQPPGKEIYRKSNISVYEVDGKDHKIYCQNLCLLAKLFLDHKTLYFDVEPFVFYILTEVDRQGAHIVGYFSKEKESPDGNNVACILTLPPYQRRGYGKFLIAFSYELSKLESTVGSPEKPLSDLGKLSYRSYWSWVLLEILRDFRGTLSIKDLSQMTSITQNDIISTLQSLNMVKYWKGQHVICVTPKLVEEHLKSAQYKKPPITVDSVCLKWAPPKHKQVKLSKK
In words: Inhibition of recombinant N-terminal His6-tagged KAT8 (unknown origin) expressed in Escherichia Coli BL21 DE3 cells assessed as reduction of Co A level using histone H4 substrate after 15 mins by CPM fluorescence assay.

As usually defined, the Ki is the dissociation constant of the complex between target and ligand, obtained from inhibition or displacement. Turning to `CCCCCCCCCCCCCCCc1ccc(O)c(C(=O)O)c1`, the Ki was 79 µM. Turning to `CCCCCCCCCCc1ccc(O)c(C(=O)O)c1`, the inhibitory constant (Ki) came to 57 µM. Take `O=C(O)c1c(O)cccc1CCCCCCCCCCCO`: the Ki is 157 µM. To `CCCCCCCCCCc1cccc(O)c1C(=O)O` belongs 37 µM.

Values taken from ChEMBL document CHEMBL3734689, “Enzyme kinetics and inhibition of histone acetyltransferase KAT8” (Eur J Med Chem, 2015).
